The molecules below were run on 168753-222-R-J1-PDC complex spheroid viability (assay: Anticancer human tumor 168753-222-R-J1-PDC patient-derived bladder carcinoma cell line growth inhibition [CLK]). Conditions: second compound 3.16 µM; first compound 0.1 µM; active compounds read low.
Outline: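 Multi-cell-type spheroids combined patient-derived tumor cells with HUVEC endothelial cells and human mesenchymal stem cells. Paired agents were dosed in half-log steps down from about clinical Cmax, or from 10 microM where Cmax was unknown.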
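Further: luminescence signal used as surrogate for viable cell amount; viability measured after seven days of drug exposure; 100% = DMSO vehicle control wells.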

Compound	viability, T/C
C=CC(=O)N1CCN(c2nc(=O)n(-c3c(C)ccnc3C(C)C)c3nc(-c4c(O)cccc4F)c(F)cc23)C(C)C1 (stereo unspecified) + CNC(=O)c1ccc(Nc2nc(OC3CCCC3)c3c(-c4ccc5nc(C)oc5c4)c[nH]c3n2)c(OC)c1	25.6%
CCCS(=O)(=O)Nc1ccc(F)c(C(=O)c2c[nH]c3ncc(-c4ccc(Cl)cc4)cc23)c1F + CNC(=O)c1ccc(Nc2nc(OC3CCCC3)c3c(-c4ccc5nc(C)oc5c4)c[nH]c3n2)c(OC)c1	33.7%
COC1C=CCC(C)C(C)S(=O)(=O)NC(=O)c2ccc3c(c2)N(CC2CCC21)CC1(CCCc2cc(Cl)ccc21)CO3 (stereo unspecified) + CNC(=O)c1ccc(Nc2nc(OC3CCCC3)c3c(-c4ccc5nc(C)oc5c4)c[nH]c3n2)c(OC)c1	15.9%

Same assay, conditions: second compound 3.16 µM; first compound 0.316 µM; active compounds read low

Compound	viability, T/C
COc1ccc([C@@H](O)c2cc(-c3ncnc4cc(N5CCOCC5)ccc34)c(F)cc2Cl)nn1 + CN1CCN(c2cc(C(=O)Nc3cc4cc(-c5cnn(C)c5)ccc4cn3)ccn2)CC1	0.15%
COc1cccc2c1C(=O)c1c(O)c3c(c(O)c1C2=O)CC(O)(C(=O)CO)CC3OC1CC(N)C(O)C(C)O1 (stereo unspecified) + CN1CCN(c2cc(C(=O)Nc3cc4cc(-c5cnn(C)c5)ccc4cn3)ccn2)CC1	0.07%
C=CC(=O)N1CCN(c2nc(=O)n(-c3c(C)ccnc3C(C)C)c3nc(-c4c(O)cccc4F)c(F)cc23)C(C)C1 (stereo unspecified) + CNC(=O)c1ccc(Nc2nc(OC3CCCC3)c3c(-c4ccc5nc(C)oc5c4)c[nH]c3n2)c(OC)c1	26.6%
CCCS(=O)(=O)Nc1ccc(F)c(C(=O)c2c[nH]c3ncc(-c4ccc(Cl)cc4)cc23)c1F + CNC(=O)c1ccc(Nc2nc(OC3CCCC3)c3c(-c4ccc5nc(C)oc5c4)c[nH]c3n2)c(OC)c1	34.4%
COC1C=CCC(C)C(C)S(=O)(=O)NC(=O)c2ccc3c(c2)N(CC2CCC21)CC1(CCCc2cc(Cl)ccc21)CO3 (stereo unspecified) + CNC(=O)c1ccc(Nc2nc(OC3CCCC3)c3c(-c4ccc5nc(C)oc5c4)c[nH]c3n2)c(OC)c1	16.9%

Same assay, conditions: second compound 3.16 µM; first compound 1 µM; active compounds read low

Compound	viability, T/C
COc1ccc([C@@H](O)c2cc(-c3ncnc4cc(N5CCOCC5)ccc34)c(F)cc2Cl)nn1 + CN1CCN(c2cc(C(=O)Nc3cc4cc(-c5cnn(C)c5)ccc4cn3)ccn2)CC1	0.05%
COc1cccc2c1C(=O)c1c(O)c3c(c(O)c1C2=O)CC(O)(C(=O)CO)CC3OC1CC(N)C(O)C(C)O1 (stereo unspecified) + CN1CCN(c2cc(C(=O)Nc3cc4cc(-c5cnn(C)c5)ccc4cn3)ccn2)CC1	0.05%
C=CC(=O)N1CCN(c2nc(=O)n(-c3c(C)ccnc3C(C)C)c3nc(-c4c(O)cccc4F)c(F)cc23)C(C)C1 (stereo unspecified) + CNC(=O)c1ccc(Nc2nc(OC3CCCC3)c3c(-c4ccc5nc(C)oc5c4)c[nH]c3n2)c(OC)c1	26.3%
CCCS(=O)(=O)Nc1ccc(F)c(C(=O)c2c[nH]c3ncc(-c4ccc(Cl)cc4)cc23)c1F + CNC(=O)c1ccc(Nc2nc(OC3CCCC3)c3c(-c4ccc5nc(C)oc5c4)c[nH]c3n2)c(OC)c1	30.1%
COC1C=CCC(C)C(C)S(=O)(=O)NC(=O)c2ccc3c(c2)N(CC2CCC21)CC1(CCCc2cc(Cl)ccc21)CO3 (stereo unspecified) + CNC(=O)c1ccc(Nc2nc(OC3CCCC3)c3c(-c4ccc5nc(C)oc5c4)c[nH]c3n2)c(OC)c1	11.5%

Same assay, conditions: second compound 3.16 µM; first compound 3.16 µM; active compounds read low

Compound	viability, T/C
COc1ccc([C@@H](O)c2cc(-c3ncnc4cc(N5CCOCC5)ccc34)c(F)cc2Cl)nn1 + CN1CCN(c2cc(C(=O)Nc3cc4cc(-c5cnn(C)c5)ccc4cn3)ccn2)CC1	0.09%
COc1cccc2c1C(=O)c1c(O)c3c(c(O)c1C2=O)CC(O)(C(=O)CO)CC3OC1CC(N)C(O)C(C)O1 (stereo unspecified) + CN1CCN(c2cc(C(=O)Nc3cc4cc(-c5cnn(C)c5)ccc4cn3)ccn2)CC1	0.27%
C=CC(=O)N1CCN(c2nc(=O)n(-c3c(C)ccnc3C(C)C)c3nc(-c4c(O)cccc4F)c(F)cc23)C(C)C1 (stereo unspecified) + CNC(=O)c1ccc(Nc2nc(OC3CCCC3)c3c(-c4ccc5nc(C)oc5c4)c[nH]c3n2)c(OC)c1	30.4%
CCCS(=O)(=O)Nc1ccc(F)c(C(=O)c2c[nH]c3ncc(-c4ccc(Cl)cc4)cc23)c1F + CNC(=O)c1ccc(Nc2nc(OC3CCCC3)c3c(-c4ccc5nc(C)oc5c4)c[nH]c3n2)c(OC)c1	29.6%
COC1C=CCC(C)C(C)S(=O)(=O)NC(=O)c2ccc3c(c2)N(CC2CCC21)CC1(CCCc2cc(Cl)ccc21)CO3 (stereo unspecified) + CNC(=O)c1ccc(Nc2nc(OC3CCCC3)c3c(-c4ccc5nc(C)oc5c4)c[nH]c3n2)c(OC)c1	15.3%

Same assay, conditions: second compound 3.16 µM; first compound 10 µM; active compounds read low

Compound	viability, T/C
COc1ccc([C@@H](O)c2cc(-c3ncnc4cc(N5CCOCC5)ccc34)c(F)cc2Cl)nn1 + CN1CCN(c2cc(C(=O)Nc3cc4cc(-c5cnn(C)c5)ccc4cn3)ccn2)CC1	0.54%
COc1cccc2c1C(=O)c1c(O)c3c(c(O)c1C2=O)CC(O)(C(=O)CO)CC3OC1CC(N)C(O)C(C)O1 (stereo unspecified) + CN1CCN(c2cc(C(=O)Nc3cc4cc(-c5cnn(C)c5)ccc4cn3)ccn2)CC1	0.95%
C=CC(=O)N1CCN(c2nc(=O)n(-c3c(C)ccnc3C(C)C)c3nc(-c4c(O)cccc4F)c(F)cc23)C(C)C1 (stereo unspecified) + CNC(=O)c1ccc(Nc2nc(OC3CCCC3)c3c(-c4ccc5nc(C)oc5c4)c[nH]c3n2)c(OC)c1	19.4%
CCCS(=O)(=O)Nc1ccc(F)c(C(=O)c2c[nH]c3ncc(-c4ccc(Cl)cc4)cc23)c1F + CNC(=O)c1ccc(Nc2nc(OC3CCCC3)c3c(-c4ccc5nc(C)oc5c4)c[nH]c3n2)c(OC)c1	26.1%
COC1C=CCC(C)C(C)S(=O)(=O)NC(=O)c2ccc3c(c2)N(CC2CCC21)CC1(CCCc2cc(Cl)ccc21)CO3 (stereo unspecified) + CNC(=O)c1ccc(Nc2nc(OC3CCCC3)c3c(-c4ccc5nc(C)oc5c4)c[nH]c3n2)c(OC)c1	7.77%

Same assay, conditions: second compound 10 µM; first compound 0.0316 µM; active compounds read low

Compound	viability, T/C
COc1ccc([C@@H](O)c2cc(-c3ncnc4cc(N5CCOCC5)ccc34)c(F)cc2Cl)nn1 + CN1CCN(c2cc(C(=O)Nc3cc4cc(-c5cnn(C)c5)ccc4cn3)ccn2)CC1	0.04%
COc1cccc2c1C(=O)c1c(O)c3c(c(O)c1C2=O)CC(O)(C(=O)CO)CC3OC1CC(N)C(O)C(C)O1 (stereo unspecified) + CN1CCN(c2cc(C(=O)Nc3cc4cc(-c5cnn(C)c5)ccc4cn3)ccn2)CC1	0.04%
C=CC(=O)N1CCN(c2nc(=O)n(-c3c(C)ccnc3C(C)C)c3nc(-c4c(O)cccc4F)c(F)cc23)C(C)C1 (stereo unspecified) + CNC(=O)c1ccc(Nc2nc(OC3CCCC3)c3c(-c4ccc5nc(C)oc5c4)c[nH]c3n2)c(OC)c1	18.8%
